Patent US5969115A, “Bisazo dyes and their preparation and use” (Ilford Imaging Switzerland GMBH, priority 1997, dated 1999)

Key:
Type in all cases: physicochemical
[1] = Dye solubility in deionised water; conditions: for Solubility: deionised water, stirred 1 hour at 50° C., cooled to 20° C., Table 5; for solubility compared with previously known dyes 24 and 26: in words
Method: The dye was dispersed in deionised water and this dispersion was stirred for 1 hour at 50° C. Then the mixture was cooled down to 20° C., centrifuged and filtered. Dye solubility was calculated a) from visible spectral data of the filtered solution or b) based on the dried filter residue.

[2] = Absorption maximum in water; conditions: Table 6
Text: The absorption maxima and the results of the tests (B) to (D) are listed in Table 6 for the dyes of the invention and in Table 7 for the dyes that are state of the art.

[3] = Color co-ordinates (L*a*b*) of printed samples; conditions: for L*a*b*-value: L* / L*a*b*-value: a* / L*a*b*-value: b*: Table 6; for neutral black (color co-ordinates): in words
Method: (§1) The present invention, as far as it relates to inks, is further illustrated by the following examples using dyes according to our invention described in Tables 1 and 2 and dyes representing the state of the art described in Tables 3 and 4. 100 g of each ink were prepared by heating the necessary amount of dye (3-7 g), glycerol (5 g), tetraethylenglycol (1.1 g). and a biocide solution (Promexal X50, available from Zeneca, Manchester, England) (1.2 g) together with water at a temperature of 50° C. under stirring for one hour. The resulting solution was cooled down to 20° C., pH was adjusted to 7.5 and passed through a Millipore® filter of 0.5 μm pore diameter. The dye quantity was adjusted in a way that the density of the printed images was the same for all dyes.
(§2) 30 g of gelatin with a high isoelectric point (type St 70,810, available from Deutsche Gelatinefabriken, Eberbach, Germany) were dissolved in 360 ml of deionised water. 1 g of a surfactant (Olin 10G, available from Olin Corporation, Norwalk, USA) were added to this solution. Immediately before coating 6.6 g of a solution of 2-(4-dimethyl-carbamoyl-pyridino)-ethanesulfonate (3%) were added and pH was adjusted to 6.5. 100 g/m^2 of this solution was then coated onto a resin coated paper support using a bar coater. The recording medium prepared in this way was dried for 12 hours.
(§3) The inks were then jetted onto this recording medium with an HP560 ink jet printer from Hewlett-Packard. The properties of the printed samples were evaluated later on.
L*a*b*-values were measured on printed samples using a Gretag SPM 100 spectrometer, available from Gretag AG, Regensdorf, Switzerland.
Black dyes show a neutral hue if the values of a* and b*out of the L*a*b* color co-ordinates are zero.

[4] = Light fastness of printed samples (density loss after xenon lamp irradiation); conditions: for light fastness: printed samples, in words; for Density loss in %: xenon lamp, total illumination 20 kJoule/cm^2, Table 6
Method: as §1, §2, §3
The printed samples were irradiated in an Atlas Ci35A Weather-O-Meter® with a r 6500 W Xenon lamp until a total illumination of 20 kJoule/cm^2 was reached. The density loss was measured with an X-Rite® densitometer. It is expressed as % loss of initial density.

Solubility [1] | solubility compared with previously known dyes 24 and 26 [1] | HD max in water [2] | L*a*b*-value: L* [3] | L*a*b*-value: a* [3] | L*a*b*-value: b* [3] | neutral black (color co-ordinates) [3] | light fastness [4] | Density loss in % [4] | SMILES
> 20 g per 100 ml | considerably higher solubility | 577 nm | 17.3 | 4.0 | -6.6 | neutral blacks | excellent light fastness | 14% | O=S(=O)(O)CCNc1ccc2cc(S(=O)(=O)O)c(N=Nc3ccc(N=Nc4ccc(CS(=O)(=O)O)cc4)c4ccc(S(=O)(=O)O)cc34)c(O)c2c1 [Compound 8]
> 20 g per 100 ml | considerably higher solubility | 575 nm | 4.3 | 2.5 | -2.5 |  |  | 5% | O=S(=O)(O)CCNc1ccc2cc(S(=O)(=O)O)c(N=Nc3ccc(N=Nc4ccc(S(=O)(=O)O)cc4)c4ccc(S(=O)(=O)O)cc34)c(O)c2c1 [Compound 3]
16 g per 100 ml |  | 576 nm | 7.3 | 2.0 | -2.4 | neutral blacks | excellent light fastness | 6% | O=S(=O)(O)CCNc1ccc2cc(S(=O)(=O)O)c(N=Nc3ccc(N=Nc4ccc(S(=O)(=O)O)cc4)c4ccc(S(=O)(=O)O)cc34)c(O)c2c1 [Compound 5]
